A short description of series [1]: Solubility (aqueous buffers, water, DMSO). Format: physicochemical. The text has this: Replacement of the 5′-oxygen atom in the acyl-sulfamate with a nitrogen affords an acyl-sulfamide backbone, which increases the pKa of the backbone NH by 2-3 units.
Series [2] concerns the target T1, hHint1 (Homo sapiens (Human), UniProt P49773). In words: Isothermal titration calorimetry (ITC) of hHint1-ligand complexes. To be noted: for ΔG / ΔH / −TΔS / Kd: ITC, hHint1; for Kd: 20° C. It is filed as binding. The procedure:
Isothermal Titration Calorimetry (ITC) ITC experiments were conducted on a MicroCal Auto-ITC200 system (GE Healthcare life sciences). […] To determine the dissociation constant of stock concentration (300-400 uM) of inhibitors was titrated with 15-20 uM of Hint1. Twenty injections of ligand were injected (injection volume 2 ul) into the protein cell. […] The in vitro binding affinity of the new series was evaluated of analogues for hHint1 using isothermal calorimetry (ITC).

Series [3] deals with ICR mice. Nature of the series: Spared nerve injury (SNI), von Frey mechanical threshold testing. It is filed as in vivo, mouse. To be noted: for SNI-induced mechanical hypersensitivity, injection on day 7 following injury: 1 nmol intrathecally 7 days post spared nerve injury; for SNI-induced mechanical hypersensitivity, pretreatment: 1 nmol intrathecally prior to spared nerve injury. The procedure:
Male and Female ICR mice (25-30 g) were given 1 nmol of TpGc prior to (Panel A) or 7 days post (Panel B) spared nerve injury. A separate cohort (Panel C) of male ICR mice (25-50 g) were given 1 nmol of compound 7 intrathecally both prior to and 7 days post spared nerve injury. All cohorts were evaluated with Von Frey mechanical threshold testing.
Male and female ICR mice were given 1 nmol of HINT1 inhibitor TpGc or 7 intrathecally either immediately prior to or 7 days following induction of neuropathic pain via spared nerve injury (Decosterd, 2000). Briefly, an incision is made into the leg of the mouse directly above the branching of the sciatic nerve. The peroneal and tibial branches of the nerve are ligated and cut while the sural branch is left intact, leading to a localized hypersensitivity on the lateral portion of the hindpaw. Von Frey mechanical testing was performed prior to surgery and for up to 7 days post surgery.

In series [4] the test system is ICR mice. Nature of the series: Development of morphine analgesic tolerance, tail flick assay. To be noted: HINT1 inhibitor+morphine intrathecally for 3 days, morphine challenge on Day 4. It is filed as in vivo, mouse.
Series [5] deals with ICR mice. In words: Inhibition of morphine inhibition of NMDA-evoked scratching and biting behavior. It is filed as in vivo, mouse. The following applies: male mice, intrathecal pretreatment before morphine and NMDA. The procedure:
Male ICR mice (25-30) were given TpGc (10 nmol) 10 minutes before morphine sulfate (10 nmol) intrathecally. After a period of 10 minutes, NMDA was injected intrathecally and scratching and biting behaviors were quantified. The MPE % was calculated using morphine alone as the positive control.
Male mice were given intrathecal treatment of either morphine or morphine+a HINT1 inhibitor. They were then given an intrathecal injection of NMDA and scratching and biting behaviors were counted for 1 minute. […]

Series [6] deals with mice. The following applies: single icv administration, CCI mice, cited from earlier work.
The target of series [7] is T1, hHint1. To be noted: ITC, cited from earlier work. (In general: ITC needs no label: the signal is the heat of the interaction.)
Series [8] deals with mice. To be noted: icv, cited from earlier work.
Series [9] addresses T1, hHint1. In words: Fluorescence assay of hHint1 activity at fixed saturating substrate concentration. Format: biochemical. The text has this:
The effect of a non-hydrolyzable nucleotide analog Bio-AMS was compared with compound 3 on the activity of hHint1 using a fluorescence assay described previously.^3
Isothermal titration calorimetry (ITC) was used to investigate the nature of non-covalent interactions on the inhibitory activity of Bio-AMS on hHint1.

Where [10] appears, read: data adapted from Garzon et al.

Structures can show the parent of a compound that is named as a salt. Where two headings read alike, the source gives them in different places. Some results are limits rather than exact numbers.

T1 sequence (P49773 whole entry): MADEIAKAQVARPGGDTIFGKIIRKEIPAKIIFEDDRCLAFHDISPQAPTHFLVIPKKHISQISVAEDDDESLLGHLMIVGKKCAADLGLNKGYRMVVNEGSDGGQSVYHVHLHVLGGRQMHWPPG

With `Nc1nc2c(ncn2[C@@H]2O[C@H](COS(=O)(=O)NC(=O)CCc3c[nH]c4ccccc34)C(O)[C@@H]2O)c(=O)[nH]1` (stereo partly drawn) [Compound 4, 5′-O—[N-(3-Indolepropionic acid)sulfamoyl] Guanosine Triethylammonium Salt], in series [1], the “stock solutions easily prepared in aqueous buffers” value (“stock solutions easily prepared” for short) is “up to 5 mM”. Moreover, in series [2], the ΔG is -8.46 ± 0.4 kcal/mol, the ΔH is -16.51 ± 0.17 kcal/mol and the “−TΔS” value stood at 8.05 ± 0.88 kcal/mol. For the same compound, the “fold increase in binding affinity over compound 3” value in series [2] (compared with compound 3) worked out at 4.5 fold.
The term Kd denotes the equilibrium constant for the complex coming apart. Turning to `CCCC(=O)NS(=O)(=O)OC[C@H]1O[C@@H](n2cnc3c(=O)[nH]c(N)nc32)C(O)C1O` (stereo partly drawn) [Compound 5], the “stock solutions easily prepared” value in series [1] is “up to 5 mM”. In addition, in series [2], the affinity, expressed as Kd, was 2.9 ± 0.25 µM; the ΔG is -5.81 ± 1.0 kcal/mol; the ΔH was -13.59 ± 1.12 kcal/mol; the “−TΔS” value was 7.71 ± 0.27 kcal/mol. Further, in series [2] (compared with compound 4), the “decrease in the enthalpy of binding” value is around 2 kcal/mol and the “fold greater dissociation constant in comparison to 4” value is 3-4 fold.
Consider `Nc1nc2c(ncn2C2OC(COS(=O)(=O)NC(=O)CCc3c[nH]c4ccccc34)C(O)C2O)c(=O)[nH]1` (single isomer, unassigned) [Compound 4, 5′-O—[N-(3-Indolepropionic acid)sulfamoyl] Guanosine Triethylammonium Salt], for which binding in series [2] was put at a Kd of 0.81 ± 0.11 µM.
With `O=C(CCc1c[nH]c2ccccc12)NS(=O)(=O)OC[C@H]1O[C@@H](n2cnc3c2ncn2ccnc32)[C@@H](O)C1O` (stereo partly drawn) [Compound 7, 5′-O—[N-(3-Indolepropionic acid)sulfamoyl]EthenoAdenosine Triethylammonium Salt], the “stock solutions easily prepared” value in series [1] was at most 20 mM. In [3], the “SNI-induced mechanical hypersensitivity, injection on day 7 following injury” value is given as “transient reversal that resolved at 4 hours post injection” and the “SNI-induced mechanical hypersensitivity, pretreatment” value is reported as “did not lead to an attenuation of pain behavior”. For the same compound, the “morphine potency and efficacy after tolerance development protocol” value in [4] is “equivalent potency and efficacy compared to the saline pre-treatment”. Further, the “ED50, attenuation of morphine's inhibition of NMDA-evoked behavior” value in [5] was found to be 0.00047 µM.
The IC50 is the concentration at which inhibition is half-maximal. Read a low IC50 as inhibition by little substance. For the compound `Nc1nc2c(ncn2[C@@H]2O[C@H](COC(=O)NCCc3c[nH]c4ccccc34)[C@@H](O)[C@H]2O)c(=O)[nH]1` [Compound 3, guanosine-5′-tryptamine carbamate], the mechanical allodynia result in series [6] is given as “reduce mechanical allodynia in animals for several days”. For the same compound, the mechanical allodynia entry in [6] (listed as TpGc) is “significant attenuation of mechanical allodynia that persisted for several days”. Also, in series [1] (in words), the aqueous solubility entry is recorded as “poor solubility”. Further, in [3], the “SNI-induced mechanical hypersensitivity, injection on day 7 following injury” value was “transient reversal of mechanical hypersensitivity” and the “SNI-induced mechanical hypersensitivity, pretreatment” value is listed as “sustained attenuation of SNI-induced mechanical hypersensitivity”. Further, in [7] (setting [10]), the ΔG is -4.1 ± 2.0 kcal/mol, the ΔH was -13.54 ± 1.00 kcal/mol and the “−TΔS” value is 9.54 ± 4.17 kcal/mol. Also, the Kd in [7] (data adapted from previously published result by Garzon et al.) was 3.65 ± 1 µM. Also, in series [4], the “morphine potency and efficacy after tolerance development protocol” value is “equivalent potency and efficacy compared to the saline pre-treatment”. In addition, the “ED50, attenuation of morphine's inhibition of NMDA-evoked behavior” value in series [5] was found to be 0.00061 µM. Besides, in series [8] (listed as TpGc), the “effect on development of morphine tolerance” value is given as “reduced the development of acute tolerance” and the “effect on morphine analgesia / antinociception” value was “potentiated morphine-evoked antinociception”. Also, in series [8], the “effect on development of morphine tolerance” value is “rescues and prevents the development of NMDAR mediated morphine tolerance”; the “effect on morphine analgesia / antinociception” value is reported as “enhances morphine analgesia”. In series [9], this compound showed an IC50 of 25.5 ± 6 µM.
As for `Nc1nc2c(ncn2[C@@H]2O[C@H](CNS(=O)(=O)NC(=O)CCc3c[nH]c4ccccc34)C(O)C2O)c(=O)[nH]1` (stereo partly drawn) [Compound 6, 5′-N—[N-(3-Indolepropionic acid)sulfamoyl] Guanosine Triethylammonium Salt], in series [1], the “stock solutions easily prepared” value is “up to 5 mM”. In addition, in series [2], the Kd was determined as 0.92 ± 0.07 µM, the ΔG was -8.24 ± 0.12 kcal/mol, the ΔH was -14.75 ± 0.12 kcal/mol and the “−TΔS” value was 6.57 ± 0.17 kcal/mol.

Values taken from patent US10513520B2, “Sulfamide and sulfamate inhibitors of hHint1” (Regents of the University of Minnesota, priority 2016, dated 2019).
